As a reminder, the melting point is the temperature of the solid-liquid transition.

Where a name gives a salt, the structure may show the parent alone.

This passage reports melting point results from patent publication US6465478B1 (dated 2002).

Turning to `NCCCN1CN(c2ccccc2)C2(CCN(C3(c4ccccc4)CCCCCC3)CC2)C1=O` (as salt: HCl), the melting point was in the range of 150 to 154 °C.

On to `CC1(N2CCC3(CC2)C(=O)N(CCN2CCCCC2)CN3c2ccccc2)CCCCCC1` (as salt: HCl), for which the melting point is 50 to 53 °C.

In the case of `CC1(N2CCC3(CC2)C(=O)N(CCCN)CN3c2ccccc2)CCCCCC1` (as salt: HCl), the melting point fell in the range of 216 to 220 °C.

In turn, `CC1(N2CCC3(CC2)C(=O)NCN3c2ccccc2)CCC=CCC1` (as salt: hydrochloride) registered a melting point of 251 to 254 °C.

On to `O=C1N(CCN2CCCCC2)CN(c2ccccc2)C12CCN(C1(c3ccccc3)CCCCCC1)CC2` (as salt: HCl), for which the melting point lay within 174 to 178 °C.
